Measurements taken from US20210046010A1, “TABLETS CONTAINING ARGININE AT HIGH CONCENTRATION” (KYOWA HAKKO BIO CO., LTD., priority 2015, published 2021).

Assays:
[1] = Moisture content of powder by heating and drying method moisture analyzer; format: physicochemical; conditions: heating and drying method moisture analyzer MX-50
Description: (§1) 600 g of L-arginine was added to 5 L of water, and the mixture was mixed, and spray dried by a spray dryer [L-8i type spray dryer (manufactured by OHKAWARA KAKOHKI CO., LTD.)] set to the conditions of atomizer rotation number=35,000 rpm, inlet temperature=180° C. and outlet temperature=70° C. to give a powder. The moisture content of the aforementioned powder was measured by a heating and drying method moisture analyzer [heating and drying method moisture analyzer MX-50 (manufactured by A&D Company, Limited)] to find 1.96 mass % The moisture content was 2.3 mass % when measured by the Karl Fischer's method at the General Incorporated Foundations Japan Food Research Laboratories. Hereinafter this powder is indicated to as “SD arginine-A”.

[2] = Moisture content of powder by Karl Fischer's method; format: physicochemical; conditions: Japan Food Research Laboratories
Description: as §1

`N=C(N)NCCC[C@H](N)C(=O)O` [SD arginine-A, L-arginine] gave a moisture content [1] of 1.96 mass % and a moisture content [2] of 2.3 mass %.
With `N=C(N)NCCC[C@H](N)C(=O)O` [SD arginine-B, L-arginine] the moisture content [1] was 1.81 mass %.
In the case of `N=C(N)NCCC[C@H](N)C(=O)O` [SD arginine-C, L-arginine], the moisture content [1] is reported as 3.80 mass % and the moisture content [2] is reported as 3.91 mass %.
